Measurements reported in publication PMC7766697, “Toxicological Screening of Four Bioactive Citroflavonoids: In Vitro, In Vivo, and In Silico Approaches” (Molecules, 2020).
Like-named read-outs stand apart in the source and are kept apart here.

Experiments:
Wistar rats [1] = conditions: for ALB (albumin) / ALT / AST / DB (direct bilirubin) / GL (globulin) / GLU (glucose) / IB (indirect bilirubin) / TB (total bilirubin) / TP (total protein): rat, in vivo, po; for ALB/GL Ratio: rats, after 14 days, plasma
Wistar rats [2] = test: Acute oral toxicity, OECD Test No. 423 (mortality, signs, LD50, body weight); assay type: in vivo; conditions: oral, 14 days
Method: Female Wistar rats (250 g b.w.) were used. These animals were obtained from Bioterium from División de Ciencias de la Salud at the Universidad de Quintana Roo. They were maintained under standard environmental conditions (22 ± 3 °C, 12 h/12 h light/dark cycle), and free access to standard rodent diet and water ad libitum. All animal procedures were conducted under our Federal Regulations for Animal Experimentation and Care and were approved by the Institutional Animal Care and Use Committee of the “Universidad Juárez Autónoma de Tabasco” university (Code:2017-001, Approved: October 2017). Rats were acclimatized for 1 week before the start of experimental procedures.
The half lethal dose (LD50) was estimated using the fixed-dose method described in OECD Guidelines for the Testing of Chemicals (Test No. 423: Acute Oral Toxicity-Class Method; OECD, 2001). […] This method allowed a step-by-step assay according to the chosen dose to begin the experiment. Subsequently, depending on the presence or absence of mortality, the decision to continue within the next step is taken, so fewer experimental animals should be used.
(§1) Rats used for this experiment were fasted for 8 h and were organized into two groups of three rats for each dose and each flavonoid. Likewise, the control group received isotonic 0.9% sodium chloride solution (dose: 5 mL/kg). All rats were closely observed for toxic symptoms and behavioral changes (sedation, hyperactivity, writhing, pruritus, feeding and drinking habits, general morphological changes, and bite legs) for 30 min and periodically 24 h post-administration. Animals were observed daily (14 days) and mortality rate recorded. A LD50 was estimated according to criteria of OECD guide 423.
The rats’ body weight in each group was determined and recorded before the treatment initiation and after 14 days. Changes in the body weight at the end of the 14 days were calculated. Once observation time was completed and to detect any adverse effect, blood samples were collected by cardiac puncture after the previous fasting of 8 h. […] In addition, organ weight was determined.

Wistar rats [3] = assay type: in vivo; conditions: rat, in vivo, po
Method: as §1
The rats’ body weight in each group was determined and recorded before the treatment initiation and after 14 days. Changes in the body weight at the end of the 14 days were calculated. Once observation time was completed and to detect any adverse effect, blood samples were collected by cardiac puncture after the previous fasting of 8 h. For this purpose, rats were anesthetized by intraperitoneally 50 mg/kg sodium pentobarbital. The liver was carefully extracted, rinsed in normal saline, drained on blotting paper, and carefully examined for tissue lesions. In addition, organ weight was determined.
Rat blood samples were analyzed by a hematology auto-analyzer system (Sysmex XS-1000i®, SYSMEX®, Oak Ridge, TN, USA). The parameters quantified on this stage were: blood count-packed cell volume (PCV), red blood cell (RBC) count, hemoglobin (Hb), platelet count, white blood cell (WBC) count, mean cell hemoglobin concentration (MCHC), mean red cell volume (MCV), mean cell hemoglobin (MCH), prothrombin time (PT), and activated partial thromboplastin time (aPTT).

MDCK cells = test: MTT-based cytotoxicity assay in MDCK cells; assay type: cell-based, Canine; conditions: 48 h, 125 to 750 µg/mL (QRT effect at 250 and 500 µg/mL)
Method: (§2) VERO and MDCK cell lines were acquired from American Type Culture Collection (ATCC, Manassas, VA, USA). […] In vitro cytotoxicity assay was performed on Madin-Darby Canine Kidney Epithelial Cells (MDCK) and green Monkey Kidney Cells (VERO) by MTT-based assay. Briefly, cells were seeded in 96-well plates at a density of 2.5 × 10^3 cells/well. […] The absorbance was measured after 45 min using a microplate reader (Multiskan Asent®) at a wavelength of 550 nm. The criteria for categorizing cytotoxicity against MDCK and VERO cells are based on the U.S. National Cancer Institute (NCI). The criteria comprise as follow: […] All results were expressed as mean ± standard error. The results from the in vivo and in vitro experiments were analyzed using software Origin® 8.0. […] The IC50 (half inhibitory concentration) values were calculated in Origin software®, (Northampton, MA, USA) and one-way ANOVA analysis was compared with cisplatin as the control.

VERO cells = test: MTT-based cytotoxicity assay in VERO cells; assay type: cell-based, green Monkey; conditions: 48 h, 125 to 750 µg/mL (QRT effect at 250–750 µg/mL)
Method: as §2

panel of five cell lines = test system: panel of five cell lines; set-up: method as in PMID 28662177; conditions: 5–50 µg/mL; cited from earlier work

For C[C@@H]1O[C@@H](O[C@H]2[C@H](Oc3cc(O)c4c(c3)O[C@H](c3ccc(O)cc3)CC4=O)O[C@H](CO)[C@@H](O)[C@@H]2O)[C@H](O)[C@H](O)[C@H]1O [NAR, naringin], the “ALB (albumin)” value (Wistar rats [1]; 300 mg/kg) was 4.50 ± 0.02 g/dL, the ALT (Wistar rats [1]; 300 mg/kg) was 27.57 ± 0.62 IU/L and the AST (Wistar rats [1]; 300 mg/kg) was 144.58 ± 17.05 IU/L. For the same compound, the “DB (direct bilirubin)” value (Wistar rats [1]; 300 mg/kg) was 0.012 ± 0.0009 mg/dL, the “GL (globulin)” value (Wistar rats [1]; 300 mg/kg) was 1.97 ± 0.04 g/dL and the “GLU (glucose)” value (Wistar rats [1]; 300 mg/kg) was 125.54 ± 14.59 mg/dL. For the same compound, the “IB (indirect bilirubin)” value (Wistar rats [1]; 300 mg/kg) was 0.024 ± 0.0007 mg/dL, the “TB (total bilirubin)” value (Wistar rats [1]; 300 mg/kg) was 0.037 ± 0.001 mg/dL and the “TP (total protein)” value (Wistar rats [1]; 300 mg/kg) was 6.48 ± 0.04 g/dL. For the same compound, the “ALB (albumin)” value (Wistar rats [1]; 2000 mg/kg) was 4.66 ± 0.16 g/dL, the ALT (Wistar rats [1]; 2000 mg/kg) was 38.59 ± 1.08 IU/L and the AST (Wistar rats [1]; 2000 mg/kg) was 128.26 ± 5.33 IU/L. For the same compound, the “DB (direct bilirubin)” value (Wistar rats [1]; 2000 mg/kg) was 0.015 ± 0.001 mg/dL, the “GL (globulin)” value (Wistar rats [1]; 2000 mg/kg) was 2.03 ± 0.05 g/dL and the “GLU (glucose)” value (Wistar rats [1]; 2000 mg/kg) was 138.55 ± 10.48 mg/dL. For the same compound, the “IB (indirect bilirubin)” value (Wistar rats [1]; 2000 mg/kg) was 0.025 ± 0.003 mg/dL, the “TB (total bilirubin)” value (Wistar rats [1]; 2000 mg/kg) was 0.039 ± 0.004 mg/dL and the “TP (total protein)” value (Wistar rats [1]; 2000 mg/kg) was 6.71 ± 0.14 g/dL. The “ALB/GL Ratio” value (Wistar rats [1]; oral 300 mg/kg) was 2.30 ± 0.05, the “ALB/GL Ratio” value (Wistar rats [1]; oral 2000 mg/kg) was 2.32 ± 0.12 and the “weight gain / body weight vs control” value (Wistar rats [2]) was “changed the body weight”. For the same compound, the Erythrocytes (Wistar rats [3]; 300 mg/kg) was 7.79±0.27 106/µL, the Hb (Wistar rats [3]; 300 mg/kg) was 14.03 ± 0.38 g/dL and the Hto (Wistar rats [3]; 300 mg/kg) was 40.63±1.03%. For the same compound, the Leukocytes (Wistar rats [3]; 300 mg/kg) was 2.65±0.30 103/µL, the MCH (Wistar rats [3]; 300 mg/kg) was 18.03 ± 0.16 pg and the MCV (Wistar rats [3]; 300 mg/kg) was 54.40 ± 1.92 fL. The Platelets (Wistar rats [3]; 300 mg/kg) was 726.00±12.26 105/µL, the RBCDW (Wistar rats [3]; 300 mg/kg) was 16.16±0.58% and the Erythrocytes (Wistar rats [3]; 2000 mg/kg) was 7.41±0.11 106/µL. The Hb (Wistar rats [3]; 2000 mg/kg) was 13.67 ± 0.16 g/dL, the Hto (Wistar rats [3]; 2000 mg/kg) was 40.66±0.39% and the Leukocytes (Wistar rats [3]; 2000 mg/kg) was 4.45±0.98 103/µL. The MCH (Wistar rats [3]; 2000 mg/kg) was 18.43 ± 0.05 pg, the MCHC (Wistar rats [3]; 2000 mg/kg) was 33.50 ± 0.14 g/dL and the MCV (Wistar rats [3]; 2000 mg/kg) was 54.86 ± 0.38 fL. The Platelets (Wistar rats [3]; 2000 mg/kg) was 553.00±239.61 105/µL, the RBCDW (Wistar rats [3]; 2000 mg/kg) was 15.80±0.12% and the “percentage viability / growth of cells” value (MDCK cells) was “did not change the percentage of growth”. For the same compound, the “percentage viability / growth of cells” value (VERO cells) was “did not change the percentage of growth” and the “cytotoxicity (mitochondrial membrane potential, cell membrane integrity, nuclear morphology)” value (panel of five cell lines) was “not cytotoxic”.
